These results are taken from publication PMC12778052 (Science Advances, 2026).

Data set [1] has as its system RT112 cells. The experiment in a line: In vitro binding of [^68Ga]AJ647 to RT112 cells. Type of data set: cell-based. As to conditions: 1 × 10^6 cells, ~1 μCi, 30 min, 4°C, means ± SD, n = 4. Here is the method:
(§1) In vitro binding of [^68Ga]AJ647 to T24, SCaBER, RT112, UC9, UC14, and HT1376 cells was determined by incubating 1 × 10^6 cells with ~1 μCi of [^68Ga]AJ647 for 30 min at 4°C. After incubation, cells were washed three times with ice-cold PBS containing 0.1% Tween 20 and counted on an automated gamma counter. All cell radioactivity uptake studies were performed in quadruplicate for each cell line and repeated three times.

Data set [2] concerns UC14 cells. The experiment in a line: In vitro binding of [^68Ga]AJ647 to UC14 cells. In kind it is cell-based. As to conditions: 1 × 10^6 cells, ~1 μCi, 30 min, 4°C, means ± SD, n = 4. Here is the method: as §1
Data set [3] can be described thus: physchem. Type of data set: physicochemical. As to conditions: pH 7.4. On the procedure: The logD (pH 7.4) value was determined according to a literature procedure ([32]). Briefly, a 10-μl solution of [^68Ga]AJ647 (around 10 μCi) was added to a solution of 1-octanol (200 μl) mixed with phosphate-buffered saline (PBS) (190 μl) in a 1.5-ml centrifuge tube. After the mixture was vigorously shaken and vortexed, it was centrifuged at 3000 rpm for 5 min. Aliquots (10 μl) were removed from both phases, and the radioactivity was measured on an automated gamma counter (1282 Compugamma CS, Pharmacia/LKB Nuclear Inc., Gaithersburg, MD). The logD was calculated as the average log ratio value of the radioactivity in the 1-octanol fraction and the PBS fraction from the three samples.

The subject of data set [4] is SCaBER tumors. Briefly: Pilot in vivo EV effect on tumor uptake of [^68Ga]AJ647, SCaBER tumors. Details: species or system NSG mice. Particulars: EV 20 mg/kg i.v. single dose, 24 hours before tracer, ex vivo 60 min, n = 5. Here is the method: Male NSG mice were implanted subcutaneously with HT1376 and SCaBER cells (4 million each) on the right and left rostral ends, respectively. On day 25 after cell inoculation (average tumor volume, 200 ± 35 mm^3), mice were randomized and treated with a single dose of either saline or EV ADC (20 mg/kg) injected intravenously (volume not exceeding 300 μl) or with 200 μl of saline (n = 7 per group). Twenty-four hours following the EV dose, [^68Ga]AJ647 PET scans (n = 2 per group) were acquired, and ex vivo biodistribution (n = 5 per group) was performed using the protocols mentioned above.

Take `CSCC[C@@H]1NC(=O)[C@@H]2CSCCC(=O)N3CN(CN(C3)C(=O)CCSC[C@H](NC(=O)CCOCCOCCOCCOCCOCCOCCOCCOCCOCCOCCOCCOCCNC(=O)CN3CCN(CC(=O)O)CCN(CC(=O)O)CC3)C(=O)N3CCC[C@H]3C(=O)N[C@@H](Cc3cccc4ccccc34)C(=O)N[C@@H](CC(=O)O)C(=O)N2)C(=O)CCSC[C@@H](C(N)=O)NC(=O)[C@H](Cc2c[nH]c3ccccc23)NC(=O)[C@@H]2C[C@@H](O)CN2C(=O)[C@@H]2CCCN2C(=O)[C@H]([C@@H](C)O)NC(=O)[C@H](CO)NC(=O)[C@H](Cc2c[nH]c3ccccc23)NC(=O)[C@@H](CC(=O)O)NC(=O)[C@H](CCCCNC(=N)N)NC1=O` [[^68Ga]AJ647, metal not drawn]: the “[^68Ga]AJ647 uptake” value in data set [1] stood at 1.9 ± 0.18 %IA; in data set [2], 3.0 ± 0.42 %IA. This molecule also returned a logD in data set [3] of -2.06 ± 0.17.

Consider enfortumab vedotin [EV], for which the “reduction in [^68Ga]AJ647 tumor uptake vs saline controls” value in data set [4] came to 72%.

One may read the logD as the decadic logarithm of the distribution of all forms, ionised or not, between an organic phase and buffer at a given pH. A low value points to lower lipophilicity.
